Reference: the supplement of paper PMC11061612

Assays:
[1] = tested on: DAN-G (Pancreatic Carcinoma); experiment: Bliss excess, mean over the matrix (fraction); higher = more synergy
Method in brief: (§1)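 Cell lines grown in DMEM/F12 or RPMI with 10% FBS were plated in 1536-well plates and held 24 hours at 37°C, 5% CO2 before 72 hours of exposure to two-drug dose matrices, with DMSO typically at 0.2%. CellTiter-Glo 2.0 luminescence gave viability, which was converted to inhibition. Vehicle wells were set to 0 and blank wells to 1. Combination Emax is the second-highest inhibition in the matrix, and Bliss excess is the observed combination effect minus the expected EA + EB − EA·EB, where EA and EB are the single-agent effects.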

[2] = tested on: SNU-398 (Hepatocellular Carcinoma); experiment: as above
Method in brief: as §1

Row | Structure (SMILES) | Bliss excess [1] | Bliss excess [2]
1 | CC(=O)Nc1cccc(-n2c(=O)n(C3CC3)c(=O)c3c(Nc4ccc(I)cc4F)n(C)c(=O)c(C)c32)c1 [Trametinib] + Cc1nc(-c2cn3c(n2)-c2ccc(-c4cnn(C(C)(C)C(N)=O)c4)cc2OCC3)n(C(C)C)n1 [Taselisib] (first compound max 1 µM, 7x7, partner max 10 µM) | 0.124 | 0.0676
2 | Cc1c2c(nn1C)CSCc1cc(n(C)n1)CSc1cc(c3ccccc3c1)OCCCc1c(C(=O)O)n(C)c3c-2c(Cl)ccc13 [AZD5991] + C[C@@H](Nc1cc(F)cc(F)c1)c1cc(C(=O)N(C)C)cc2c(=O)cc(N3CCOCC3)oc12 [AZD8186] (first compound max 1 µM, 7x7, partner max 3 µM) | 0.0051 | -0.0004
3 | C=CCn1c(=O)c2cnc(Nc3ccc(N4CCN(C)CC4)cc3)nc2n1-c1cccc(C(C)(C)O)n1 [AZD1775] + C[C@@H]1COCCN1C2=NC(=NC(=C2)C3(CC3)[S@](=N)(=O)C)C4=C5C=CNC5=NC=C4 [AZD6738] (first compound max 1 µM, partner max 10 µM) | -0.0079 | -0.0067
4 | COc1cccc2c1C(=O)c1c(O)c3c(c(O)c1C2=O)C[C@@](O)(C(=O)CO)C[C@@H]3O[C@H]1C[C@H](N)[C@H](O)[C@H](C)O1 [Doxorubicin] + Cc1cc2ncnn2cc1Nc1ncc2c(n1)n(C1CCOCC1)c(=O)n2C [AZD7648] (first compound max 1 µM, 7x7, partner max 10 µM) | 0.0173 | 0.056
5 | CC1(C)CCC(CN2CCN(c3ccc(C(=O)NS(=O)(=O)c4ccc(NCC5CCOCC5)c([N+](=O)[O-])c4)c(Oc4cnc5[nH]ccc5c4)c3)CC2)=C(c2ccc(Cl)cc2)C1 [Venetoclax] + C1CN(CCC1(C(=O)N[C@@H](CCO)C2=CC=C(C=C2)Cl)N)C3=NC=NC4=C3C=CN4 [Capivasertib] (first compound max 1 µM, 7x7, partner max 3 µM) | -0.0689 | -0.0081
6 | Cc1cc2ncnn2cc1Nc1ncc2c(n1)n(C1CCOCC1)c(=O)n2C [AZD7648] + C=CCn1c(=O)c2cnc(Nc3ccc(N4CCN(C)CC4)cc3)nc2n1-c1cccc(C(C)(C)O)n1 [AZD1775] (first compound max 10 µM, partner max 1 µM) | -0.0686 | 0.0128
7 | CC1(C)CCC(CN2CCN(c3ccc(C(=O)NS(=O)(=O)c4ccc(NCC5CCOCC5)c([N+](=O)[O-])c4)c(Oc4cnc5[nH]ccc5c4)c3)CC2)=C(c2ccc(Cl)cc2)C1 [Venetoclax] + Cn1cnc2c(F)c(Nc3ccc(Br)cc3Cl)c(C(=O)NOCCO)cc21 [Selumetinib] (first compound max 1 µM, 7x7, partner max 3 µM) | -0.0459 | -0.0003
8 | CC1(C)CCC(CN2CCN(c3ccc(C(=O)NS(=O)(=O)c4ccc(NCC5CCOCC5)c([N+](=O)[O-])c4)c(Oc4cnc5[nH]ccc5c4)c3)CC2)=C(c2ccc(Cl)cc2)C1 [Venetoclax] + CN(C)CCCOc1ccc(-c2ccc3ncc4c(c3c2)n(C2CCOCC2)c(=O)n4C)cn1 [AZD0156] (first compound max 1 µM, 7x7, partner max 1 µM) | -0.0268 | -0.0081
9 | C=CCn1c(=O)c2cnc(Nc3ccc(N4CCN(C)CC4)cc3)nc2n1-c1cccc(C(C)(C)O)n1 [AZD1775] + O=C(c1cc(Cc2n[nH]c(=O)c3ccccc23)ccc1F)N1CCN(C(=O)C2CC2)CC1 [Olaparib] (first compound max 1 µM, partner max 10 µM) | -0.0142 | -0.0396
10 | CC1(C)CCC(CN2CCN(c3ccc(C(=O)NS(=O)(=O)c4ccc(NCC5CCOCC5)c([N+](=O)[O-])c4)c(Oc4cnc5[nH]ccc5c4)c3)CC2)=C(c2ccc(Cl)cc2)C1 [Venetoclax] + COc1cc(Nc2ncc3c(n2)-c2ccc(Cl)cc2C(c2c(F)cccc2OC)=NC3)ccc1C(=O)O [Alisertib] (first compound max 1 µM, 7x7, partner max 10 µM) | -0.0024 | -0.0219
11 | COc1cccc(OCCCN)c1-c1cc(Nc2cnc(C#N)cn2)n[nH]1 [Prexasertib] + O=C(c1cc(Cc2n[nH]c(=O)c3ccccc23)ccc1F)N1CCN(C(=O)C2CC2)CC1 [Olaparib] (first compound max 1 µM, 7x7, partner max 10 µM) | -0.0164 | -0.0572
12 | C[C@@H]1COCCN1c1cc(C2([S@](C)(=N)=O)CC2)nc(-c2ccnc3[nH]ccc23)n1 [AZD6738] + O=C(c1cc(Cc2n[nH]c(=O)c3ccccc23)ccc1F)N1CCN(C(=O)C2CC2)CC1 [Olaparib] (first compound max 10 µM, 7x7, partner max 10 µM) | -0.0051 | 0.0108
13 | COc1cccc(OCCCN)c1-c1cc(Nc2cnc(C#N)cn2)n[nH]1 [Prexasertib] + C[C@@H]1COCCN1C2=NC(=NC(=C2)C3(CC3)[S@](=N)(=O)C)C4=C5C=CNC5=NC=C4 [AZD6738] (first compound max 1 µM, 7x7, partner max 10 µM) | -0.0309 | 0.026
14 | COc1cccc(OCCCN)c1-c1cc(Nc2cnc(C#N)cn2)n[nH]1 [Prexasertib] + CCc1c2c(nc3ccc(O)cc13)-c1cc3c(c(=O)n1C2)COC(=O)[C@]3(O)CC [SN-38] (first compound max 1 µM, 7x7, partner max 0.3 µM) | 0.0239 | 0.0441
15 | Cc1cc2ncnn2cc1Nc1ncc2c(n1)n(C1CCOCC1)c(=O)n2C [AZD7648] + C[C@@H]1COCCN1C2=NC(=NC(=C2)C3(CC3)[S@](=N)(=O)C)C4=C5C=CNC5=NC=C4 [AZD6738] (first compound max 10 µM, 7x7, partner max 10 µM) | -0.0093 | -0.0097
16 | COc1cc2c(cc1OCCCCCOc1cc3c(cc1OC)C(=O)N1C=C(C)C[C@H]1C=N3)N=C[C@@H]1CC(C)=CN1C2=O [SG3199] + O=C(c1cc(Cc2n[nH]c(=O)c3ccccc23)ccc1F)N1CCN(C(=O)C2CC2)CC1 [Olaparib] (first compound max 0.001 µM, 7x7, partner max 10 µM) | -0.0266 | -0.0322
17 | Cc1c2c(nn1C)CSCc1cc(n(C)n1)CSc1cc(c3ccccc3c1)OCCCc1c(C(=O)O)n(C)c3c-2c(Cl)ccc13 [AZD5991] + Cn1cnc2c(F)c(Nc3ccc(Br)cc3Cl)c(C(=O)NOCCO)cc21 [Selumetinib] (first compound max 1 µM, 7x7, partner max 3 µM) | 0.0588 | 0.0354
18 | COc1cccc(OCCCN)c1-c1cc(Nc2cnc(C#N)cn2)n[nH]1 [Prexasertib] + CN(C)CCCOc1ccc(-c2ccc3ncc4c(c3c2)n(C2CCOCC2)c(=O)n4C)cn1 [AZD0156] (first compound max 1 µM, 7x7, partner max 1 µM) | -0.0132 | 0.0501
19 | COc1nnc2ccc(N3CCC(c4ccc(OCCN5CCN(C)C(=O)[C@H]5C)cc4)CC3)nn12 [AZD5153] + CN(CC[C@H](CSC1=CC=CC=C1)NC2=C(C=C(C=C2)S(=O)(=O)NC(=O)C3=CC=C(C=C3)N4CCC(CC4)[C@H](C5=CC=CC=C5C6=CC=C(C=C6)Cl)O)S(=O)(=O)C(F)(F)F)CCO [AZD4320] (first compound max 1 µM, 7x7, partner max 1 µM) | 0.0358 | -0.0093
20 | Cc1c2c(nn1C)CSCc1cc(n(C)n1)CSc1cc(c3ccccc3c1)OCCCc1c(C(=O)O)n(C)c3c-2c(Cl)ccc13 [AZD5991] + CC1(C)CCC(CN2CCN(c3ccc(C(=O)NS(=O)(=O)c4ccc(NCC5CCOCC5)c([N+](=O)[O-])c4)c(Oc4cnc5[nH]ccc5c4)c3)CC2)=C(c2ccc(Cl)cc2)C1 [Venetoclax] (first compound max 1 µM, 7x7, partner max 1 µM) | -0.0352 | -0.0013
